Assay results: patent US20240343713A1, “TELOMERASE INHIBITOR COMPOUNDS” (Geron Corporation, priority 2023, published 2024)

Assays:
[1] = for deaths after first dose reduction: 25 mg/Kg (Compound 1, Compound 2) or 10 mg/Kg (Compound 3) PO on Day-10 and Day-12, deaths Day 11-13; for animals lost due to overdose early in the study: initial dosing 50 mg/Kg then 25 or 10 mg/Kg PO, 7 animals per group
Procedure: 7.1 Body Weight. The body weight data of NOD-SCID mice used for this study involving different treatment groups (Vehicle Control, 10 mg/Kg of the three treatment groups and 50 mg/Kg of the reference standard) was monitored every alternate day.

[2] = tested on: LUC-MOLM13 cell line; settings: for leukemia cell burden / tumor load by bioluminescence imaging (BLI), overall: male NOD-SCID mice, LUC-MOLM13 i.v., PO alternate days, test compounds finally 10 mg/Kg, BIBR-1532 50 mg/Kg, up to Day 28, vs vehicle control
Procedure: Screening of anticancer activity of compounds in an efficacy model using Luc-MOLM13 cell line
The efficacy study was conducted to assess the tumor regression of Compound 1, Compound 2, and Compound 3 shown below in male NOD-SCID mice using LUC-MOLM13 cell line. Individual animals were assigned identification markings on the ear.
Each mouse was intravenously injected with 1 million LUC-MOLM13 tumor cells in a total volume of 0.1 mL in DPBS and this would be considered as Day 0. Luciferin (150 mg/Kg body weight) was planned to be injected (JP) 5 mins before imaging and sequential 1-2 images of mice were planned every 1 minute. The animals were planned to be dosed with test compounds from Day 10 onwards by oral route at doses of 50 mg/Kg every alternate day.
The efficacy study was conducted to assess the inhibitory effect of Compound 1, Compound 3 and Compound 2 on leukemia cell expansion in male NOD-SCID mice using LUC-MOLM13 cell line.
1 million of LUC-MOLM13 cells/100 μL were suspended in DPBS and were inoculated per mouse via intravenous route in the lateral tail vein in NOD SCID male mice (Fed animals) of 6 to 8 weeks old after 7 days of acclimatization. This was considered as Day-0 of the study.
Luciferin (150 mg/Kg body weight) was injected (IP) 5 mins before imaging and sequential 1-2 images of mice were taken every 1 minute.
Bioluminescence imaging for tumor evaluation was done on Days 0, 5, 10, 15, 18, 21 and 28 respectively along with regular body weight monitoring. The following observations were monitored at regular intervals: body weight (% body weight loss), frequencies of leukemic cells (LUC-MOLM13) in hematopoietic organs and non-lymphoid tissues using imaging on an IVIS spectrum imager for tumor burden evaluation.
Other observations included any clinical signs/observations upon dosing. […] A range of tissues were collected including brain, axillary lymph node, eyes, branchial lymph node, lungs, heart, stomach, liver, kidney, spleen, cervical lymph node, mesenteric lymph node, inguinal lymph node, GI tract and male reproductive organ. Growth kinetics of Luc-MOLM13 cells was monitored based on BLI along with survival curve.
Initial plan was to dose from Day 10 onwards by oral route at doses of 50 mg/Kg every alternate day; however, we initiated the dosing from Day-8 onwards based on few reports [7, 8]. […] BIBR-1532 dosing was maintained at 50 mg/Kg every alternate day. […] Dosing was stopped for the next 4 days for all test compounds and BIBR-1532 considering the animal health condition. […]
The data for bioluminescence imaging levels (BLI (Avg Radiance) was captured from the instrument across the individual groups for the ROI (region of interest (ROI) and the average radiance was calculated to understand the levels as compared to vehicle control (Group 3).

Row | Structure (SMILES) | overall animal health ([1]; LUC-MOLM13 tumor-bearing NOD-SCID mice, test compounds 10 mg/Kg, BIBR-1532 50 mg/Kg PO) | bioluminescence (average radiance) on Day 21 ([2]; Day 21, test compounds 10 mg/Kg, BIBR-1532 50 mg/Kg PO) | survival curve / deaths ([2]; after dose reduction, test compounds 10 mg/Kg, BIBR-1532 50 mg/Kg PO alternate days, until Day 34) | leukemia cell burden / tumor load by bioluminescence imaging (BLI), overall [2] | deaths after first dose reduction [1] | animals lost due to overdose early in the study [1] | loss of animals after the first dose ([1]; mouse, in vivo)
1 | C/C(=C\C(=O)Nc1ccccc1C(=O)O)c1ccc2ccccc2c1 [BIBR-1532, reference compound] | deteriorated | signal was enhanced | one death on Day 31 and another on Day 34 | repressed as the days progressed | – | – | –
2 | C=C1CC(c2ccc(Cl)cc2-c2cn[nH]c2)OC1=O (stereo not shown) [Compound 1] | – | – | – | – | one animal each on Day 12 and Day-13 | two | –
3 | C=C1C(=O)OC(c2ccc(Cl)cc2-c2cnn(C)c2)C1O (stereo not shown) [Compound 3] | – | – | – | comparable impact on leukemia cell reduction to that of BIBR-1532, albeit at a lower dosage | 1 | two | one
